In ChEMBL document CHEMBL5465560, “Selectivity Literature for EUbOPEN Chemogenomic Library” (2024):

Assays:
[1] = target: Ribosomal protein S6 kinase alpha-5 (Homo sapiens) (UniProt O75582); experiment: Selectivity interaction (KinomeScan (DiscoverX)) EUB0000229b RPS6KA5; settings: at 10 µM
[2] = target: T1, Aurora kinase C (Homo sapiens) (UniProt Q9UQB9); experiment: Selectivity interaction (KinomeScan (DiscoverX)) EUB0001079a AURKC; settings: at 1 µM
T1 sequence (whole entry): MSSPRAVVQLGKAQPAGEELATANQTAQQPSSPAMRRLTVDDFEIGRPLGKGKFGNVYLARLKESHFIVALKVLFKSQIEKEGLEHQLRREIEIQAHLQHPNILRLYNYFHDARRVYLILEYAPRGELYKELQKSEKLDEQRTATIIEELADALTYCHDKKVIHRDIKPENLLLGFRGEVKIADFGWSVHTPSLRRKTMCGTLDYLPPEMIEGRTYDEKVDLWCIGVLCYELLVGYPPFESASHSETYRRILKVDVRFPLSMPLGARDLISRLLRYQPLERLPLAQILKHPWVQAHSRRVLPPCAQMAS

[3] = target: Myosin light chain kinase 2, skeletal/cardiac muscle (Homo sapiens) (UniProt Q9H1R3); settings: at 10 µM
Sequence of Myosin light chain kinase 2, skeletal/cardiac muscle (Homo sapiens) (Q9H1R3 whole entry): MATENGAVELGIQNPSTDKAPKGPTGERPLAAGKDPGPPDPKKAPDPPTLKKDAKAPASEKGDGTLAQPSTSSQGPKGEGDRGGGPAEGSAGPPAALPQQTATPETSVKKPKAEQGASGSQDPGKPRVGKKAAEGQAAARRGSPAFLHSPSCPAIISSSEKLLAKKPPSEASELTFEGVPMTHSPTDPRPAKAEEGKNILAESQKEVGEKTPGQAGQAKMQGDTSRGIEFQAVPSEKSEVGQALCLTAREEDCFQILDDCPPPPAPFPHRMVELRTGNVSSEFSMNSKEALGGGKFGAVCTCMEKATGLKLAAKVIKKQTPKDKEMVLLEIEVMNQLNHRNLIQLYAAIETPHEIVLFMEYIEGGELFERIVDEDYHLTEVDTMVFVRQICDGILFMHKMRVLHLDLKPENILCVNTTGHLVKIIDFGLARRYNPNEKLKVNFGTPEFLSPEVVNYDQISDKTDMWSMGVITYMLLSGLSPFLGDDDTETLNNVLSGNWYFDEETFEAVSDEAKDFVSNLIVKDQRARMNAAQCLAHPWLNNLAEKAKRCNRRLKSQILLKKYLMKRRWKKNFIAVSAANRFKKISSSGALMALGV

[4] = target: T2, Ribosomal protein S6 kinase delta-1 (Homo sapiens) (UniProt Q96S38); experiment: Selectivity interaction (ActivX KiNativ screen (kinase selectivity in THP-1 cell lysates)) EUB0000639a RPS6KC1; assay type: subcellular; settings: lysate
T2 sequence (whole entry): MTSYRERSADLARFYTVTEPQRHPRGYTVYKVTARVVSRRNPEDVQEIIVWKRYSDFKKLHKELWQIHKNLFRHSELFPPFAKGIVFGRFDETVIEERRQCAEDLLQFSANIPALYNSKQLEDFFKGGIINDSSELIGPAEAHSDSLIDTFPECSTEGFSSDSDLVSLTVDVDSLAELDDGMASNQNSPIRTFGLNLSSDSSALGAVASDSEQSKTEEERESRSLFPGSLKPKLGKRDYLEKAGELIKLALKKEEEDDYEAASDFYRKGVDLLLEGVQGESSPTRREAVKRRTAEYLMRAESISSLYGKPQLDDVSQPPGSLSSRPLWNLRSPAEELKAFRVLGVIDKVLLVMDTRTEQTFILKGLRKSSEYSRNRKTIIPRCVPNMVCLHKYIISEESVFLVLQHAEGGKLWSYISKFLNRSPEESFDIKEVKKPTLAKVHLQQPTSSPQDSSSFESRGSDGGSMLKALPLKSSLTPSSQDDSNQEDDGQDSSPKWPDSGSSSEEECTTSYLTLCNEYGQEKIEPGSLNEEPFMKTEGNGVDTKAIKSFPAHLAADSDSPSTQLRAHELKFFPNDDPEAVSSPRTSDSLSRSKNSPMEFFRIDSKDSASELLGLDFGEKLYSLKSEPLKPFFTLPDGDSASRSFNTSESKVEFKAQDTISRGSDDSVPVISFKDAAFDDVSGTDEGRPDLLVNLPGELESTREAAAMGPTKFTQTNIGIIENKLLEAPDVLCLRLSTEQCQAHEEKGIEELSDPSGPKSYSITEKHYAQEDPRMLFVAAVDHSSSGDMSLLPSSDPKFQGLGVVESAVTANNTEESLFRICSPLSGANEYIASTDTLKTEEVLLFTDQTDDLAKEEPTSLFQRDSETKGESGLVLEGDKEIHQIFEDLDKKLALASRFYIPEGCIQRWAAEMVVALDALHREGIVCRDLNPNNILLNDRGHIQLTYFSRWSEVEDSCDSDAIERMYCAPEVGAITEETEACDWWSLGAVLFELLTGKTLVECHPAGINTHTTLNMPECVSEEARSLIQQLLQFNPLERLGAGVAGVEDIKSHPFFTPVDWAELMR

[5] = target: MAP kinase-interacting serine/threonine-protein kinase 2 (Homo sapiens, UniProt Q9HBH9); settings: at 10 µM
Sequence of MAP kinase-interacting serine/threonine-protein kinase 2 (Q9HBH9 whole entry, looked up): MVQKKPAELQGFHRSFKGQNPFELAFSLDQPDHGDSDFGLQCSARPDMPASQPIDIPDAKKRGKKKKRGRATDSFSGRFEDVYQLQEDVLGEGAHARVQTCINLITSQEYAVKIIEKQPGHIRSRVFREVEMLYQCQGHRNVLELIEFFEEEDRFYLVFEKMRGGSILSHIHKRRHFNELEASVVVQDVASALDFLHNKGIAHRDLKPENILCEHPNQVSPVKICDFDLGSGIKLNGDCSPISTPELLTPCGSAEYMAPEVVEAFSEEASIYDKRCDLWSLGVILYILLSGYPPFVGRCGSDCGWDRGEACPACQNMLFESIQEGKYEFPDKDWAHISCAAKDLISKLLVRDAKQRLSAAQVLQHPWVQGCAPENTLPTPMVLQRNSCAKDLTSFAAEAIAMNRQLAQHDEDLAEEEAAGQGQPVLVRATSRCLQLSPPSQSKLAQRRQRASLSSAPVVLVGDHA

[6] = target: T3, Mitogen-activated protein kinase kinase kinase 2 (Homo sapiens) (UniProt Q9Y2U5); experiment: Selectivity interaction (KinomeScan (DiscoverX)) EUB0001619a MAP3K2; settings: at 1 µM
T3 sequence (whole entry): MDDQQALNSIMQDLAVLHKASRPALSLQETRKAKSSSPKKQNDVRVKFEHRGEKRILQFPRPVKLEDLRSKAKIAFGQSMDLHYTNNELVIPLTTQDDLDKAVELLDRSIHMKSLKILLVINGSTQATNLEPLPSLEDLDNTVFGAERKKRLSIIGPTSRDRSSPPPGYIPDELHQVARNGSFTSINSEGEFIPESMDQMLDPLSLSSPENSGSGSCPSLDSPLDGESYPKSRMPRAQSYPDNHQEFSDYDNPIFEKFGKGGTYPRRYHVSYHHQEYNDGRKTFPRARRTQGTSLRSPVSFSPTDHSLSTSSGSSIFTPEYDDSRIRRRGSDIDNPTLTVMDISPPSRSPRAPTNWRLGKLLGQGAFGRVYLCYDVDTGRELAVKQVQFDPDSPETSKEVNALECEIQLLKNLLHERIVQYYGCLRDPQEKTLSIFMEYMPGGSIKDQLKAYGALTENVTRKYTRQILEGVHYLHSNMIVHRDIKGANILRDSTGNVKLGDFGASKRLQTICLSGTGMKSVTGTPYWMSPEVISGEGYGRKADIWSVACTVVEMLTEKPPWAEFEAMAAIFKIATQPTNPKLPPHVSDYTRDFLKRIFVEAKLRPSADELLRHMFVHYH

[7] = target: Dual specificity mitogen-activated protein kinase kinase 2 (Homo sapiens) (UniProt P36507); experiment: Selectivity interaction (SelectScreen profiling (Invitrogen)) EUB0000607a MAP2K2; settings: at 2 µM
Sequence of Dual specificity mitogen-activated protein kinase kinase 2 (Homo sapiens) (P36507 whole entry): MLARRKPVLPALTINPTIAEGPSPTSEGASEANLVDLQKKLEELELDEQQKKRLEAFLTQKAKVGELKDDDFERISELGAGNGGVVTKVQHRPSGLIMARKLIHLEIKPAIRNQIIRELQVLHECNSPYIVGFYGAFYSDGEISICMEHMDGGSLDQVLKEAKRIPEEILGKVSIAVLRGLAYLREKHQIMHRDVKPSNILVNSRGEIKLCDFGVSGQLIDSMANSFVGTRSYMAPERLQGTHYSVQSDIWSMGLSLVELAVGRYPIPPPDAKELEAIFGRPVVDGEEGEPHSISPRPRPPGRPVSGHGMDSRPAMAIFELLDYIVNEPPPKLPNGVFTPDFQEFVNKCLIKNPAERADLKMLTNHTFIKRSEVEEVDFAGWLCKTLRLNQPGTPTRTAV

[8] = target: Dual specificity testis-specific protein kinase 1 (Homo sapiens) (UniProt Q15569); experiment: Selectivity interaction (LanthaScreen Eu Kinase Binding Assay) EUB0001632a TESK1; settings: at 10 µM
Sequence of Dual specificity testis-specific protein kinase 1 (Homo sapiens) (Q15569 whole entry, looked up): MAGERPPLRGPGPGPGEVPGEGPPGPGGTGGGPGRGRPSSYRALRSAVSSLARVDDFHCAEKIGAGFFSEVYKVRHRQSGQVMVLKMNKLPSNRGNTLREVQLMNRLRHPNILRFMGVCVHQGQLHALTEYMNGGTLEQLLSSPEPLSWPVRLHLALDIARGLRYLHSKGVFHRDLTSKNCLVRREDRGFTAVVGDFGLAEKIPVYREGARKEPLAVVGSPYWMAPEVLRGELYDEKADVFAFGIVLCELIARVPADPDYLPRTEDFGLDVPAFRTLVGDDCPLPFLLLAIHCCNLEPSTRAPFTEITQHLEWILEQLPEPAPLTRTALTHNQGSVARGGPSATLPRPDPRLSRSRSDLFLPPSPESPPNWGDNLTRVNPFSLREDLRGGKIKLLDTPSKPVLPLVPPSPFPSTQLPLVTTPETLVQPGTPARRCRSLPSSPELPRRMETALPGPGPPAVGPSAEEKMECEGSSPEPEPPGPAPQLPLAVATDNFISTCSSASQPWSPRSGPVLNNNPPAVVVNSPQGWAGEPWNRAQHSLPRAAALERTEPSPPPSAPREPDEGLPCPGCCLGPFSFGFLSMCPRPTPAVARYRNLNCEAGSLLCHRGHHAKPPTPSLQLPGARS

Sequence of Ribosomal protein S6 kinase alpha-5 (Homo sapiens) (O75582 whole entry, looked up): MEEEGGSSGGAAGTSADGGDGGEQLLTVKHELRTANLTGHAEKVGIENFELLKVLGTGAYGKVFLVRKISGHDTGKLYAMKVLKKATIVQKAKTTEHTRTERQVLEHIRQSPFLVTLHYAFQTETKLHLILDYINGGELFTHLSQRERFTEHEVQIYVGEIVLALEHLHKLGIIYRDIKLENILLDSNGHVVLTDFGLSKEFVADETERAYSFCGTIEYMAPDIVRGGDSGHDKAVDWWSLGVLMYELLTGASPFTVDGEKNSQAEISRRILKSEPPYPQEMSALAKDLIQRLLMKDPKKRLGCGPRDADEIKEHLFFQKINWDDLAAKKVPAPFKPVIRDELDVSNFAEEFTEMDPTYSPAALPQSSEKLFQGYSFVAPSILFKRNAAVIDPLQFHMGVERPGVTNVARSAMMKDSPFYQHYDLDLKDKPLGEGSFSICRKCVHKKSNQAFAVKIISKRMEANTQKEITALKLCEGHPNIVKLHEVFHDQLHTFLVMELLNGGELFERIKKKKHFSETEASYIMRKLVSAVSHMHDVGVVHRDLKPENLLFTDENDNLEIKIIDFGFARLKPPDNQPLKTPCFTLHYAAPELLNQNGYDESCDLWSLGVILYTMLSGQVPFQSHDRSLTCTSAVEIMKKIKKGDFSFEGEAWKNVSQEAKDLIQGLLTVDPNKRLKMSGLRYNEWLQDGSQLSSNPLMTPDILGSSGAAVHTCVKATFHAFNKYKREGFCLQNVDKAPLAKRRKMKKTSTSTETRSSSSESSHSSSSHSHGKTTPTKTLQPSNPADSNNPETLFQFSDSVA

COc1cc(N(C)c2ccnc3ccc(C(F)(F)F)cc23)cc(OC)c1OC
% binding [1]: 87%

Nc1cnc(N2CCc3cc(S(=O)(=O)Nc4c(F)cc(Cl)cc4F)cc(N4CCCC4=O)c32)nc1 [TP-020n]
% of control [2]: 100%

CCN(CC)CCCCNc1ncc2cc(-c3cc(OC)cc(OC)c3)c(NC(=O)NC(C)(C)C)nc2n1
% of control [3]: 100%

CC[C@@H]1[C@H](F)C(=O)N[C@@H]1COc1nccc2cc(C(N)=O)c(OC)cc12 [ZIMLOVISERTIB]
% of inhibition ([4]; at 0.01 µM): 11.8% | % of inhibition ([4]; at 0.04 µM): -10.9% | % of inhibition ([4]; at 0.2 µM): -1.8% | % of inhibition ([4]; at 1 µM): 9.6% | % of inhibition ([4]; at 5 µM): 8.3%

Cc1cc([C@@H](C)Nc2ccccc2C(=O)O)c2nc(N3CCOCC3)cc(=O)n2c1 [AZD-6482]
% of control [5]: 92%

N#Cc1cccc(-c2c[nH]c3ncnc(N4CCOCC4)c23)c1
% of control [6]: 21%

CNC(=O)Nc1ccc(-c2nc(N3CC4CCC(C3)O4)c3cnn(C4CCC5(CC4)OCCO5)c3n2)cc1
% of inhibition [7]: 2%

Cn1cc(-n2cnc3c(NCc4nc5cc(Cl)c(Cl)cc5[nH]4)nc(N4CCOCC4)nc32)cn1
% of inhibition [8]: -5.55%
